Experimental data from US10597366B2, “Aryl ethers and uses thereof” (Peloton Therapeutics, Inc., priority 2013, dated 2020).
pEC50: −log10 of the molar value. Where two headings read alike, the source gives them in different places.

Test system: 786-O-Hif-Luc cells (luciferase gene driven by multiple HIF responsive elements)
Assay: Luciferase Assay
Assay type: cell-based
Settings: 24 h, read-out: Mean Luciferease EC50
Experimental: A pool of infected cells were then selected against 2 μg/mL of puromycin (P8833, Sigma) for 10 days followed by limited dilution to select single clones.
Each concentration was tested in triplicate. After about 24 hours, luciferase activity was determined using ONE-Glo Luciferase Assay Reagent (E6110, Promega) following the manufacturer's recommended procedure. EC50 were calculated by using Dotmatics software.

[1] = 786-O-Hif-Luc cells, about 24 hours

Row | Structure (SMILES) | pEC50 [1] | pEC50
1 | CS(=O)(=O)c1ccc(Oc2cc(F)cc(C#N)c2)c(C(F)F)c1C#N [Compound 94, 3-(3-Cyano-5-fluorophenoxy)-2-(difluoromethyl)-6-(methylsulfonyl)benzonitrile] | 6.12 | –
2 | N#Cc1cc(F)cc(Oc2ccc(S(=O)(=O)C(F)(F)F)c(C#N)c2Br)c1 [Compound 100, 2-Bromo-3-(3-cyano-5-fluorophenoxy)-6-((trifluoromethyl)sulfonyl)benzonitrile] | 5.12 | –
3 | O=Cc1c(S(=O)(=O)C(F)(F)F)ccc(Oc2cc(F)cc(Cl)c2)c1Br [Compound 101, 2-Bromo-3-(3-chloro-5-fluorophenoxy)-6-((trifluoromethyl)sulfonyl)benzaldehyde] | 6.49 | –
4 | CC(O)c1c(S(=O)(=O)C(F)(F)F)ccc(Oc2cc(F)cc(Cl)c2)c1Br (stereo not shown) [Compound 103, 1-(2-Bromo-3-(3-chloro-5-fluorophenoxy)-6-((trifluoromethyl)sulfonyl)phenyl)ethan-1-ol] | 5.48 | –
5 | CC(=O)c1c(S(=O)(=O)C(F)(F)F)ccc(Oc2cc(F)cc(Cl)c2)c1Br [Compound 104, 1-(2-Bromo-3-(3-chloro-5-fluorophenoxy)-6-((trifluoromethyl)sulfonyl)phenyl)ethan-1-one] | 4.92 | –
6 | O=S(=O)(c1ccc(Oc2cc(F)cc(Cl)c2)c(Br)c1C=NO)C(F)(F)F [Compound 107, 2-Bromo-3-(3-chloro-5-fluorophenoxy)-6-((trifluoromethyl)sulfonyl)benzaldehyde oxime] | 6.28 | –
7 | O=S(=O)(c1ccc(Oc2cc(F)cc(Cl)c2)c(Br)c1CNCc1ccccc1)C(F)(F)F [Compound 110, N-Benzyl-1-(2-bromo-3-(3-chloro-5-fluorophenoxy)-6-((trifluoromethyl)sulfonyl)phenyl)methanamine] | 5.19 | –
8 | N#Cc1c(S(=O)(=O)C(F)(F)F)ccc(Oc2cc(F)cc(Cl)c2)c1Cl [Compound 111, 2-Chloro-3-(3-chloro-5-fluorophenoxy)-6-((trifluoromethyl)sulfonyl)benzonitrile] | 5.86 | –
9 | O=Cc1c(S(=O)(=O)C(F)(F)F)ccc(Oc2cc(F)cc(Cl)c2)c1Cl [Compound 112, 2-Chloro-3-(3-chloro-5-fluorophenoxy)-6-((trifluoromethyl)sulfonyl)benzaldehyde] | 6.47 | –
10 | O=S(=O)(c1ccc(Oc2cc(F)cc(Cl)c2)c(Cl)c1CNCCF)C(F)(F)F [Compound 114, N-(2-Chloro-3-(3-chloro-5-fluorophenoxy)-6-((trifluoromethyl)sulfonyl)benzyl)-2-fluoroethan-1-amine] | 5.05 | –
11 | CS(=O)(=O)c1ccc(Oc2cncc(Cl)c2)c2c1[C@H](O)C(F)(F)C2 [Compound 115, (S)-4-((5-Chloropyridin-3-yl)oxy)-2,2-difluoro-7-(methylsulfonyl)-2,3-dihydro-1H-inden-1-ol] | 6.52 | –
12 | N#Cc1cccc(Oc2ccc(S(=O)(=O)C(F)(F)F)cc2Br)c1 [Compound 117, 3-(2-Bromo-4-((trifluoromethyl)sulfonyl)phenoxy)benzonitrile] | 5.52 | –
13 | N#Cc1cc(F)cc(Oc2ccc(S(=O)(=O)C(F)(F)F)cc2Br)c1 [Compound 118, 3-(2-Bromo-4-((trifluoromethyl)sulfonyl)phenoxy)-5-fluorobenzonitrile] | 5.82 | –
14 | N#Cc1cc(F)cc(Oc2ccc(S(=O)(=O)C(F)(F)F)cc2C#N)c1 [Compound 120, 2-(3-Cyano-5-fluorophenoxy)-5-((trifluoromethyl)sulfonyl)benzonitrile] | 5.13 | –
15 | O=S(=O)(c1ccc(Oc2cc(F)cc(Cl)c2)c(Br)c1)C(F)F [Compound 131, 2-Bromo-1-(3-chloro-5-fluorophenoxy)-4-((difluoromethyl)sulfonyl)benzene] | 5.70 | –
16 | N#Cc1cc(F)cc(Oc2ccc(S(=O)(=O)C(F)F)cc2C#N)c1 [Compound 134, 2-(3-Cyano-5-fluorophenoxy)-5-((difluoromethyl)sulfonyl)benzonitrile] | 5.64 | –
17 | Cc1cc(S(=O)(=O)C(F)F)ccc1Oc1cc(F)cc(Cl)c1 [Compound 135, 1-(3-Chloro-5-fluoro-phenoxy)-4-(difluoromethylsulfonyl)-2-methyl-benzene] | 5.27 | –
18 | Cc1cc(S(=O)(=O)C(F)F)ccc1Oc1cc(F)cc(C#N)c1 [Compound 136, 3-[4-(Difluoromethylsulfonyl)-2-methyl-phenoxy]-5-fluoro-benzonitrile] | 5.62 | –
19 | Cc1c(Oc2cc(F)cc(Cl)c2)ccc(S(=O)(=O)C(F)(F)F)c1Br [Compound 140, 3-Bromo-1-(3-chloro-5-fluoro-phenoxy)-2-methyl-4-(trifluoromethylsulfonyl)benzene] | 5.62 | –
20 | Cc1c(Oc2cc(F)cc(Cl)c2)ccc(S(=O)(=O)C(F)(F)F)c1Cl [Compound 143, 3-Chloro-1-(3-chloro-5-fluoro-phenoxy)-2-methyl-4-(trifluoromethylsulfonyl)benzene] | 5.92 | –

Row | Structure (SMILES) | pEC50 [1] | pEC50
21 | Cc1c(Oc2cc(F)cc(C#N)c2)ccc(S(=O)(=O)C(F)(F)F)c1Cl [Compound 144, 3-Fluoro-5-[3-chloro-2-methyl-4-(trifluoromethylsulfonyl)phenoxy]benzonitrile] | 6.41 | –
22 | Cc1c(Oc2cc(F)cc(C#N)c2)ccc(S(=O)(=O)C(F)(F)F)c1C=O [Compound 145, 3-Fluoro-5-[3-formyl-2-methyl-4-(trifluoromethylsulfonyl)phenoxy]benzonitrile] | 6.37 | –
23 | Cc1c(Oc2cc(F)cc(C#N)c2)ccc(S(=O)(=O)C(F)(F)F)c1CO [Compound 146, 3-Fluoro-5-[3-(hydroxymethyl)-2-methyl-4-(trifluoromethylsulfonyl)phenoxy]benzonitrile] | 6.32 | –
24 | COC(=O)/C=C/c1c(S(=O)(=O)C(F)(F)F)ccc(Oc2cc(F)cc(C#N)c2)c1C [Compound 147, Methyl (E)-3-[3-(3-cyano-5-fluoro-phenoxy)-2-methyl-6-(trifluoromethylsulfonyl)phenyl]prop-2-enoate] | 5.12 | –
25 | CCOC(=O)/C=C/c1c(S(=O)(=O)C(F)(F)F)ccc(Oc2cc(F)cc(C#N)c2)c1C [Compound 148, Ethyl (E)-3-(3-(3-cyano-5-fluorophenoxy)-2-methyl-6-((trifluoromethyl)sulfonyl)phenyl)acrylate] | 5.25 | –
26 | Cc1nnc(/C=C/c2c(S(=O)(=O)C(F)(F)F)ccc(Oc3cc(F)cc(C#N)c3)c2C)o1 [Compound 151, 3-Fluoro-5-[2-methyl-3-[(E)-2-(5-methyl-1,3,4-oxadiazol-2-yl)vinyl]-4-(trifluoromethylsulfonyl)phenoxy]benzonitrile] | 5.05 | –
27 | CS(=O)(=O)c1ccc(Oc2cc(F)cc(C#N)c2)c(C#N)c1Cl [Compound 152, 2-chloro-6-(3-cyano-5-fluorophenoxy)-3-(methylsulfonyl)benzonitrile] | 5.68 | –
28 | N#Cc1cc(F)cc(Oc2ccc(S(=O)(=O)C(F)F)c3c2CC[C@H]3O)c1 [Compound 155, 3-[(1R)-7-(difluoromethylsulfonyl)-1-hydroxy-indan-4-yl]oxy-5-fluoro-benzonitrile] | – | 6.89
29 | N#Cc1cccc(Oc2ccc(S(=O)(=O)C(F)F)c3c2CC[C@H]3O)c1 [Compound 156, 3-[(1R)-7-(Difluoromethylsulfonyl)-1-hydroxy-indan-4-yl]oxybenzonitrile] | – | 6.46
30 | O=S(=O)(c1ccc(Oc2ccc(F)c(Cl)c2)c2c1[C@H](O)CC2)C(F)F [Compound 157, (1R)-4-(3-Chloro-4-fluoro-phenoxy)-7-(difluoromethylsulfonyl)indan-1-ol] | 5.60 | –
31 | CS(=O)(=O)c1ccc(Oc2cc(F)cc(Cl)c2)c2c1[C@H](O)C(F)(F)C2 [Compound 160, (1S)-4-(3-Chloro-5-fluoro-phenoxy)-2,2-difluoro-7-methylsulfonyl-indan-1-ol] | 8.00 | –
32 | CS(=O)(=O)c1ccc(Oc2cccc(C#N)c2)c2c1[C@H](O)C(F)(F)C2 [Compound 162, 3-[(1S)-2,2-Difluoro-1-hydroxy-7-methylsulfonyl-indan-4-yl]oxybenzonitrile] | 7.20 | –
33 | CS(=O)(=O)c1ccc(Oc2cc(F)cc(C#N)c2)c2c1[C@H](O)C(F)(F)C2 [Compound 163, (S)-3-((2,2-Difluoro-1-hydroxy-7-(methylsulfonyl)-2,3-dihydro-1H-inden-4-yl)oxy)-5-fluorobenzonitrile] | – | 7.64
34 | CS(=O)(=O)c1ccc(Oc2cc(F)cc(C#N)c2)c2c1[C@H](N)C(F)(F)C2 [Compound 165, 3-[(1S)-1-Amino-2,2-difluoro-7-methylsulfonyl-indan-4-yl]oxy-5-fluoro-benzonitrile] | – | 6.62
35 | N#Cc1cc(Cl)cc(Oc2ccc(S(=O)(=O)CF)c3c2CC(F)(F)[C@H]3O)c1 [Compound 167, (S)-3-Chloro-5-((2,2-difluoro-7-((fluoromethyl)sulfonyl)-1-hydroxy-2,3-dihydro-1H-inden-4-yl)oxy)benzonitrile] | – | 7.80
36 | O=S(=O)(c1ccc(Oc2cc(F)cc(F)c2)c(Cl)c1CO)C(F)F [Compound 168, (2-Chloro-6-((difluoromethyl)sulfonyl)-3-(3,5-difluorophenoxy)phenyl)methanol] | 6.51 | –
37 | O=S(=O)(c1ccc(Oc2cc(Cl)cc(Cl)c2)c(Br)c1)C(F)(F)F [Compound 172, 2-Bromo-1-(3,5-dichlorophenoxy)-4-((trifluoromethyl)sulfonyl)benzene] | 5.47 | –
38 | O=C1c2c(S(=O)(=O)C(F)F)ccc(Oc3cncc(Cl)c3)c2CC1(F)F [Compound 182, 4-((5-Chloropyridin-3-yl)oxy)-7-((difluoromethyl)sulfonyl)-2,2-difluoro-2,3-dihydro-1H-inden-1-one] | 5.40 | –
39 | O=S(=O)(CF)c1ccc(Oc2cncc(Cl)c2)c2c1[C@H](O)C(F)(F)C2 [Compound 187, (S)-4-((5-Chloropyridin-3-yl)oxy)-2,2-difluoro-7-((fluoromethyl)sulfonyl)-2,3-dihydro-1H-inden-1-ol] | 7.01 | –
40 | CS(=N)(=O)c1ccc(Oc2cc(F)cc(F)c2)c2c1C(O)CC2 (stereo not shown) [Compound 190, (7-(3,5-Difluorophenoxy)-3-hydroxy-2,3-dihydro-1H-inden-4-yl)(imino)(methyl)-λ^6-sulfanone] | 4.90 | –
